Source: US9883691B2, “Food and beverage products containing 1,3-propanediol and methods of modifying flavor release using 1,3-propanediol” (Kraft Foods Group Brands LLC, priority 2012, dated 2018)
“Also recorded” adds a separate entry of the source.

How the values were obtained:
Type in all cases: physicochemical
[1] = PTR-MS headspace release at various flavor compound to 1,3-propanediol or PG ratios (Example 2); conditions: for release suppressed in the presence of 1,3-propanediol: 10% cut-off for significant difference, relative to PG; for Percent Suppression by 1,3-propanediol: (IZ−IPG)/IPG×100
Description: The compounds listed below in Table 3 were added together to provide a liquid flavoring to analyze the role, if any, of the amount of 1,3-propanediol on flavor release. […] The amount of each flavor compound in the beverage was held constant at 8 ppm except furfuryl mercaptan was included at 1.6 ppm while the amount of propylene glycol or 1,3-propanediol varied.
The percent suppression was calculated using the following formula: (IZ−IPG)/IPG×100, where I is peak height, “Z” is 1,3-propanediol and “PG” is propylene glycol.

[2] = PTR-MS headspace release with various non-aqueous liquids (diols) at 0.05:100 (Example 3); conditions: ratio 0.05:100; for PTR-MS headspace release in 1,3-butanediol: non-aqueous liquid 1,3-butanediol; for PTR-MS headspace release in 1,3-butanediol / PTR-MS headspace release in 1,3-propanediol / PTR-MS headspace release in 1,4-butanediol / PTR-MS headspace release in 1,7-heptanediol / PTR-MS headspace release in Propylene glycol: diluted in water; for PTR-MS headspace release in 1,3-propanediol: non-aqueous liquid 1,3-propanediol; for PTR-MS headspace release in 1,4-butanediol: non-aqueous liquid 1,4-butanediol; for PTR-MS headspace release in 1,7-heptanediol: non-aqueous liquid 1,7-heptanediol; for PTR-MS headspace release in Propylene glycol: non-aqueous liquid propylene glycol
Description: […]. The flavoring was then diluted in water for analysis. The final concentration of each compound was held constant at 8 ppm except furfuryl mercaptan was included at 1.6 ppm to maintain a constant flavor level in the resulting beverage while the non-aqueous liquid varied but the ratio of each compound to non-aqueous liquid was held constant at 0.05:100. A variety of non-aqueous liquids were evaluated, including 1,4-butandiol; 1,7-heptandiol; 1,3-butandiol, propylene glycol, and 1,3-propanediol.
Samples were analyzed by PTR-MS as described in Example 1.
Percent suppression was calculated by the following formula: (I1-3-diol−Ialternate diol)/Ialternate diol×100.

[3] = PTR-MS headspace release from stored beverages, water/solvent experiment (Example 4); conditions: beverage stored refrigerated; 1.5, 24, 48 and 72 hours; Tukey-Kramer
Description: 0.86 grams of the flavor concentrate was then added to 100 grams of either propylene glycol or 1,3-propanediol to provide diluted concentrates. […].
The beverages were then stored in sealed containers in a refrigerator. The container was opened five times over the course of the experiment and therefore represented a beverage in a sealed container being opened for multiple uses. 15 gram samples were weighed into a 4 ounce cup and analyzed at 1.5 hours, 24 hours, 48 hours, and 72 hours after storage.
The samples were analyzed in triplicate by PTR-MS as described below to determine impact of 1,3-propanediol or propylene glycol on release of the flavors from the beverage. The PTR-MS was performed as follows. A sampling apparatus was needed in conjunction with the PTR-MS inlet to prevent variations caused by headspace kinetics. The sampling apparatus used includes a 4 ounce sample vessel equipped with a 2-hole lid which may be sealed by an adhesive film to allow equilibration. […]. The holes were equal sized (˜2 mm diameter) and match the outer diameter of the PTR-MS inlet line. The flow of the dilution gas into the vessel was regulated by the vacuum and proportional valve of the PTR-MS inlet system. […] The 2 holes in the lid were equidistant from the edge of the vessel (˜20 mm) and ˜30 mm from each other. The PTR-MS inlet was braced by clamps in a fixed position vertically above the laboratory bench (˜55 mm) and a silicone rubber depth gauge was affixed to the PTR-MS inlet tubing and set at 18 mm. The PTR-MS inlet was consistently oriented in a vertical position […] below the inside lid of the vessel and 19 mm above the sample in the vessel. The sample vessel was then held in place during sampling according to the depth gauge on the inlet line and the vessel was subsequently supported on the bench by a 10 mm plastic spacer.
15 grams of the sample to be tested (e.g., food or beverage product containing 1,3-propanediol) are added to the vessel and the vessel is sealed and allowed to equilibrate at room temperature (˜22° C.) for 90 minutes. At the time of sampling, the seal was removed from both the sampling hole and the dilution gas hole in the lid and the vessel was immediately affixed to the PTR-MS inlet via the sampling hole. The real-time released flavor was measured from the headspace of the sample vessel for two minutes (according to the conditions listed in Table 1 above).
The data was analyzed using PTR-MS Viewer, Version 3.0.0.101 (Ionicon Analytik G.m.b.H). The point of maximum intensity for each compound of interest was determined and recorded according to the PTR-MS Viewer software. The maximum intensity in counts over the timescale for each compound of interest was used for data analysis as it reflected the static equilibrium headspace concentration in the system at the moment of seal removal. Due to the necessity of a dilution gas, the volatile concentration decreased over time as the compounds of interest re-equilibrated to a state of dynamic equilibrium in the headspace.
The statistical differences were determined by Tukey-Kramer Honest […]. […].

[4] = PTR-MS headspace release in neat solvent, solvent/solvent experiment (Example 5); parameters: key to Release Differences: “Z” indicates that 1,3-propanediol had higher equilibrium maximum (meaning more of the flavor was released in 1,3-propanediol); “P” indicates that propylene glycol had higher equilibrium maximum; “-” indicates no statistical difference (95% significance) between the two samples; conditions: 1.5 hrs equilibration; for Release Differences: 1,3-propanediol versus propylene glycol as sole solvent, 95% significance
Description: […]. Then the head space was analyzed as described above.
0.86 grams of the concentrate was added to 100 grams of either propylene glycol or 1,3-propanediol to provide a 1,3-propanediol diluted concentrate or propylene glycol diluted concentrate. The diluted concentrates were then further diluted as outlined in Table 10 below.
A 15 gram sample was weighed into a 4 oz vessel and analyzed at 1.5 hrs. of equilibration time as described in the method of Example 4.

[5] = ratio 0.005:100, negative = suppressed vs PG
[6] = flavor/1,3-propanediol ratio of 0.05:100

Row | SMILES | release suppressed in the presence of 1,3-propanediol [1] | Percent Suppression by 1,3-propanediol [1, 5] [%] | Percent Suppression by 1,3-propanediol ([1]; ratio 0.05:100) [%] | Percent Suppression by 1,3-propanediol ([1]; ratio 5:100) [%] | Percent Suppression by 1,3-propanediol ([1]; ratio 15:100) [%] | PTR-MS headspace release in 1,3-butanediol [2] | PTR-MS headspace release in 1,3-propanediol [2] | PTR-MS headspace release in 1,4-butanediol [2] | PTR-MS headspace release in 1,7-heptanediol [2] | PTR-MS headspace release in Propylene glycol [2] | Percent suppression by 1,3-butanediol relative to 1,4-butanediol [2] [%] | effect of 1,3-propanediol on flavor release relative to propylene glycol, water/solvent [3] | Release Differences [4] | release in 1,3-propanediol versus propylene glycol, solvent/solvent [4] | effect of 1,3-propanediol on release [1, 6] | effect of 1,3-propanediol on release ([1]; flavor to 1,3-propanediol ratio of about 0.005:100 to 15:100) | effect of 1,3-propanediol on release ([1]; ratio 0.005:100)
1 | C=C(C)[C@H]1CC=C(C)CC1 [Limonene] | suppressed | −0.1 | −25.2 | −34.8 | 23.5 | 13.5 | 4.9 | 59.7 | 59.5 | 6.55 | −343.5 | little effect; also recorded: no significant difference | Z | released faster in 1,3-propanediol |  |  | 
2 | CCCCCCCCCC(=O)OCC [Ethyl decanoate] |  | −2.0 | 41.9 | 17.8 | −12.4 | 117.0 | 23.9 | 258.0 | 131.3 | 16.84 | −120.5 | little effect |  |  |  |  | 
3 | Cc1nc(C)c(C)nc1C [Tetramethyl pyrazine] | suppressed | 10.2 | −44.6 | −17.8 | −5.6 | 12.3 | 9.89 | 20.5 | 22.0 | 17.85 | −67.3 | little effect | Z |  | significant suppression effect |  | 
4 | CC(C)=CCCC(C)=CC=O [Citral, 3,7-dimethyl-2,6-octadienal] | suppressed | −70.0 | −69.0 | −45.4 | −58.2 | 6.0 | 5.83 | 13.5 | 24.3 | 18.80 | −124.2 | significantly suppressed release |  |  |  | significant suppression effect | still suppressed
5 | SCc1ccco1 [Furfuryl mercaptan] |  | 31.8 | 7.8 | 15.9 | −13.1 | 1.3 | 0.55 | 0.3 | 2.1 | 0.51 | 73.9 | significantly increase the rate of release |  |  |  |  | 
6 | COc1ccccc1O [Guaiacol] | suppressed | −3.4 | −48.1 | −19.9 | 0.2 | 28.4 | 18.95 | 39.9 | 36.2 | 36.50 | −40.3 | significantly suppressed release |  |  | significant suppression effect |  | 
7 | CCCCCCCCO [Octanol] |  | 8.5 | −11.4 | −19.1 | −0.6 | 4.0 | 1.05 | 5.1 | 6.2 | 1.19 | −27.5 | significantly suppressed release; also recorded: released faster in propylene glycol | P | no significant difference |  |  | 
8 | CCCCCCCC=O [Octanal] |  | 2.6 | −10.5 | −21.1 | −2.5 | 42.9 | 10.70 | 56.0 | 67.0 | 11.95 | −30.5 | significantly suppressed release |  |  |  |  | 
9 | CC(=O)O [Acetic acid] | suppressed | −0.5 | −27.7 | −1.7 | −9.0 | 16.9 | 9.90 | 15.6 | 13.4 | 13.70 | 8.0 | little effect | P |  | significant suppression effect |  | 
